Legend:
[1] = Thermogravimetric (TG) analysis; assay type: physicochemical; settings: for TG analysis: temperature until which no significant changes are observed (then loss of mass / decomposition): heated at 10° C./min between 30 and 300° C., nitrogen flow
Procedure: Thermogravimetric analyses were recorded in a Mettler Toledo SDTA851e. Samples of 1-3 mg were weighted (using a microscale MX5, Mettler) 40 μL aluminium crucibles with a pinhole lid, and were heated at 10° C./min between 30 and 300° C., under nitrogen flow (50 mL/min). Data collection and evaluation was done with software STARe.

[2] = Differential scanning calorimetry (DSC) analysis; assay type: physicochemical
Procedure: DSC analyses were recorded either in a Mettler Toledo DSC822e or using a DSC-821 Mettler-Toledo, serial number 5117423874. In the case of a Mettler Toledo DSC822e equipment, samples of 1-3 mg were weighted (using a microscale MX5, Mettler) into 40 μL aluminium crucibles with a pinhole lid, and were heated, under nitrogen flow (50 mL/min), from 30 to 300° C. at a heating rate of 10° C./min. Data collection and evaluation was done with software STARe. In case of a DSC-821 Mettler-Toledo, serial number 5117423874 equipment, samples were weighed into an aluminium pan, an aluminium pinhole lid placed on top of the sample and compressed with a brass rod. Samples were equilibrated at 25° C. and heated at 10° C./min to 300° C. The instrument was calibrated using indium and zinc standards.

Row | SMILES | TG analysis: temperature until which no significant changes are observed (then loss of mass / decomposition) [1] | hygroscopicity (no solvent/water release in TG) ([1]; no change prior to 140° C., in particular at 80-100° C.) | stability (no conversion into other polymorphs, no decomposition below the DSC endotherm) [2] | DSC endothermic curve onset (possible decomposition of the salt) ([2]; heating rate 10° C./min) | DSC endothermic curve maximum (possible fusion/decomposition of the salt) ([2]; heating rate 10° C./min) [°C]
1 | CN(CCCn1nnc2cc(CNC[C@H](O)c3ccc(O)c4[nH]c(=O)ccc34)ccc21)[C@H]1CC[C@H](OC(=O)C(O)(c2cccs2)c2cccs2)CC1.O=C1NS(=O)(=O)c2ccccc21 (relative stereo) [Example 1, trans-4-[{3-[5-({[(2R)-2-hydroxy-2-(8-hydroxy-2-oxo-1,2-dihydroquinolin-5-yl)ethyl]amino}methyl)-1H-1,2,3-benzotriazole-1-yl]propyl}(methyl)-amino]cyclohexyl hydroxy(di-2-thienyl)acetate saccharinate] | 130-140 °C | lack of hygroscopicity | high stability | about 170 °C | –
2 | CN(CCCn1c(=O)sc2cc(CNC[C@H](O)c3ccc(O)c4[nH]c(=O)ccc34)ccc21)[C@H]1CC[C@H](OC(=O)C(O)(c2cccs2)c2cccs2)CC1.O=C(O)/C=C/C(=O)O [Example 2, trans-4-[{3-[6-({[(2R)-2-hydroxy-2-(8-hydroxy-2-oxo-1,2-dihydroquinolin-5-yl)ethyl]amino}methyl)-2-oxo-1,3-benzothiazole-3(2H)-yl]propyl}(methyl)amino]cyclohexyl hydroxy(di-2-thienyl)acetate fumarate] | about 140 °C | – | high stability | – | 134

Source: patent publication US9579316B2, “Salts of 2-amino-1-hydroxyethyl-8-hydroxyquinolin-2(1H)-one derivatives having both muscarinic receptor antagonist and β2 adrenergic receptor agonist activities” (priority 2013, dated 2017)
